{
  "source": "paper PMC12691742",
  "about": "“Anti-Cancer Outcome of Glucocorticoid Receptor Transrepression by Synephrine Derivatives in Hematological Malignancies” (International Journal of Molecular Sciences, 2025)",
  "key": {"GR": {"target": "T1, GR (Homo sapiens, UniProt P04150)", "T1 construct": "endogenous in cells; host or cells: K562", "T1 sequence (P04150 1-777)": "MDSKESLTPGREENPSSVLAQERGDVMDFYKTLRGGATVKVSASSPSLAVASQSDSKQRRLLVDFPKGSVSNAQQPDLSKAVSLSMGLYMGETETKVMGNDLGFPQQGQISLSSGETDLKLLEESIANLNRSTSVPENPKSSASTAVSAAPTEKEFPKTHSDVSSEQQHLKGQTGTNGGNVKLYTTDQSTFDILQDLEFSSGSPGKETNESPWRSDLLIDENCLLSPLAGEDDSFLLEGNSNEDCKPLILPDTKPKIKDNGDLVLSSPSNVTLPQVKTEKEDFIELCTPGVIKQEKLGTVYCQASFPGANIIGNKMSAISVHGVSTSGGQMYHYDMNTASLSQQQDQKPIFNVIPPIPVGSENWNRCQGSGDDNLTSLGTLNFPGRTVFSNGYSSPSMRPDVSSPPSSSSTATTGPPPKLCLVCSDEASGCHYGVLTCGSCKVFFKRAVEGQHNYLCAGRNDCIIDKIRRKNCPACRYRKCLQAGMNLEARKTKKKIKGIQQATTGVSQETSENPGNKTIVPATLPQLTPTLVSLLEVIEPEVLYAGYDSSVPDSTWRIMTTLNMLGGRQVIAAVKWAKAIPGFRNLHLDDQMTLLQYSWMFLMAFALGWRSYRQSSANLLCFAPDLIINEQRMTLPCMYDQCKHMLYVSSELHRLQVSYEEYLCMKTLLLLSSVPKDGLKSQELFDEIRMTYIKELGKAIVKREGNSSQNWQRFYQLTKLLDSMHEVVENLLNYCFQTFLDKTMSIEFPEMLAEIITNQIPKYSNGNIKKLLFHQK", "assay": "GR radioligand binding assay, competition with [3H]Dex in K562 cells", "method": "(A,B). […] The stability of the complex was simulated using molecular dynamics in the GROMACS program. (C) GR binding affinity was estimated using a radioligand binding assay. […] Cell lysate radioactivity was measured using a RackBeta 1215 LC (LKB Wallac, Turku, Finland) spectrometer for 4 min. […] The experiments were performed in triplicate (n = 3).\nAfter 90 min of incubation, the cells were washed twice by centrifugation in cold serum-free medium (1500 rpm, 5 min). The cells were then lysed with RIPA buffer (50 mM Tris (pH 8.0), 150 mM NaCl, 1 mM ethylenediaminetetraacetic acid, 0.1% sodium dodecyl sulfate, 0.5% sodium deoxycholate, 1% triton-X100, 10% glycerin, and protease inhibitor) for 20 min. Lysates were transferred to scintillation liquid, and radioactivity was measured using a RackBeta 1215 LC spectrometer for 4 min. […] IC50 was determined using GraphPad Prism software, Ver.7.0. […] “Top” meant the highest value in dpm and was equal to 100%, while the “bottom” was considered as the lowest value (0%). […] The IC50 values for each ligand were determined by plotting these curves. The experiments were performed in triplicate."}, "[1]": {"system": "IL1-α and IL6 mRNA expression in K562 and Granta cells", "assay": "Q-PCR of GR transrepression marker genes", "format": "cell-based", "method": "Figure 4 Effects of synephrine derivatives on GR transrepression in Granta lymphoma and K562 leukemia cells. (A) K562 and Granta cells stably infected with the lentiviruses bearing the NF-kB luciferase reporter. Cells were incubated for 5 h with the solvent (control), TPA (5 ng/mL), 4S-C2 (10 µM), 8S-E3 (10 µM), 10S-E2 (1 µM), or 13S-G2 (1 µM). Luciferase activity was determined as described in the Materials and Methods section. (B) IL1-α and IL6 mRNA expression in K562 and Granta cells. Q-PCR results were normalized to the expression of the housekeeping gene RPL27 and are presented as the fold change compared to the control. The mean ± SD was calculated for three individual samples/condition (n = 3). Statistically significant differences compared to the control: * p < 0.05, ** p < 0.01.\nTotal RNA isolation from cell cultures and murine bones, reverse transcription, and Q-PCR were performed as described in [36]. Primers were designed using NCBI Primer-BLAST https://www.ncbi.nlm.nih.gov/tools/primer-blast/, accessed on 25 August 2025 (Supplementary Table S1). Results were normalized to the expression of the housekeeping RPL27 и Rpl27 genes. The experiments were performed in triplicate."}, "Granta cells": {"system": "Granta cells", "assay": "Cell cycle analysis by PI flow cytometry in Granta cells", "format": "cell-based", "conditions": "24 h, 10S-E2 6.25 µM", "method": "Figure 5 Pro-apoptotic and anti-cancer effects of synephrine derivatives in vitro and in vivo. (A) Effect of 4S-C2, 8S-E3, 10S-E2, and 13S-G2 on cell cycle progression in K562 and Granta cells after 24 h of incubation. The cells were fixed with ethanol, stained with propidium iodide, and analyzed using flow cytometry. Statistically significant difference compared to control: *—p < 0.05, **—p < 0.01 (n = 3). (B) In vivo anti-cancer activity was evaluated using the transplantable P388 murine lymphoma model. […] Tumor nodule size was measured twice a week using digital calipers. Statistically significant differences compared to the control: * p < 0.05, ** p < 0.01.\nThe distribution of cells by cell cycle phases was evaluated using propidium iodide (PI) staining, as described in [19]. […] After incubation, the cells were resuspended in 70% ethanol and fixed for 2h at 4 °C. Cells were then washed twice with cold PBS, pH 7.4, and stained with 500 µL of cold propidium iodide (PI) solution (50 µg/mL PI, 1% Triton X-100, and 100 µg/mL RNase A in PBS). The cell cycle distribution of cells in samples was analyzed using an FACSCalibur Flow Cytometer (“BD Biosciences”, San Jose, CA, USA). The experiments were performed in triplicate."}},
  "data": [
    {"compound": "CCCCCCNCC(O)c1ccc(OCc2ccccc2)cc1", "note": "(stereo not drawn) [10S-E2, 1-[4-(benzyloxy)phenyl]-2-(hexylamino)ethanol]", "values": [
      {"measurement": "IC50", "setting": "GR", "result": 560, "unit": "nM"},
      {"measurement": "expression of GR TR marker genes IL1-α and IL6", "setting": "[1]", "result": "downregulation"},
      {"measurement": "number of cells in the G1 phase", "setting": "Granta cells", "result": "decrease in the number of cells in the G1 phase"}
    ]}
  ]
}
